Drawing on ChEMBL document CHEMBL1148088, “Vibrindole A, a metabolite of the marine bacterium, Vibrio parahaemolyticus, isolated from the toxic mucus of the boxfish Ostracion cubicus” (1994), this text covers zone of inhibition and inhibition zone (IZ) for 3 molecules.

Assay [1] has as its system Staphylococcus aureus. The assay is described as follows: Antimicrobial activity against Staphylococcus aureus Sau1091-5 at 100 ug/disk. In kind it is functional. Particulars: read-out: IZ.
In assay [2] the test system is Bacillus subtilis. The experiment in a line: Antimicrobial activity against Bacillus subtilis Bs1091-1 at 100 ug/disk. In kind it is functional. The settings on record: read-out: IZ.
Assay [3] relates to Staphylococcus. The experiment in a line: Antimicrobial activity against Staphylococcus albus Sal1091-4 at 100 ug/disk. In kind it is functional. The settings on record: read-out: IZ.
The subject of assay [4] is Staphylococcus. The experiment in a line: Antimicrobial activity against Staphylococcus albus Sal1091-4 at […]. In kind it is functional, organism-based.

`O=C1c2ccccc2NC1(c1c[nH]c2ccccc12)c1c[nH]c2ccccc12`: the zone of inhibition at 100 µg/disc in assay [1] stood at 11 mm.

Turning to `CC(c1c[nH]c2ccccc12)c1c[nH]c2ccccc12` [VIBRINDOLE A], the zone of inhibition at 100 µg/disc in assay [1] worked out at 11 mm; in assay [2] it was 7 mm; in assay [3], 11 mm.

Regarding GENTAMICIN, the inhibition zone (IZ) in assay [4] worked out at 14 mm.
